In brackets after ≈: the same amount, converted by molar mass.
Legend:
H. pylori CPY 433 = experiment: In vitro antimicrobial test (agar dilution method); format: cell-based, Helicobacter pylori; details: Brucella agar with 7% horse blood
H. pylori TN 58 = experiment: In vitro antimicrobial test (agar dilution method); format: cell-based, Helicobacter pylori; details: Brucella agar with 7% horse blood
[1] = system: Helicobacter pylori TN2GF4; experiment: In vivo antimicrobial activity test in infected mongolian gerbils; details: for Clearance Rate: mongolian gerbils infected with H. pylori TN2GF4; for Bacterial Detection: mean±standard deviation
Protocol: After mongolian gerbils (MGS/Sea, male, 6 weeks of age) were fasted for 24 hours, Helicobacter pylori TN2GF4 was inoculated to the stomach at 10^7.08 per mongolian gerbil. Starting at 11 days after infection, a 3, 10, 30, or 100 mg/kg suspension of the test compound in a 0.5% aqueous solution of methyl cellulose was orally administered twice daily (morning and evening) for 3 days. On the day after final administration, the stomach of each infected mongolian gerbil was excised and disrupted; a series of 10-fold dilutions of the stomach homogenate were each inoculated to modified Skirrow's medium supplemented with activated charcoal and cultured under microaerophilic conditions at 37° C. for 4 days, after which clearance effect was assessed on the basis of the presence or absence of bacterial growth. Bacterial cell counts are expressed in mean±standard deviation after Dunnett's test against the control group.
In Table 4, ** indicates p<0.01.

[2] = system: Candida albicans IFO 0583; experiment: In vitro antimicrobial test (agar dilution method); format: cell-based; details: Brucella agar with 7% horse blood, 37° C., 4 days
Protocol: (§1) Using 5 strains of Helicobacter pylori, 19 other bacterial species and 2 yeast species as test strains, the antimicrobial activities of various compounds were determined by the method described below (agar dilution method). The test compound was dissolved in dimethyl sulfoxide; this solution was 2-fold diluted step by step with sterilized distilled water to yield test samples. Two milliliters of each test sample was mixed with 18 ml of Brucella agar supplemented with 7% horse blood as a medium to prepare a determination plate. Helicobacter pylori was subjected to shaking culture at 37° C. in a gas pack jar incorporating CampyPak™ (BBL^R Beckton Dickinson Microbiology Systems) for 20 hours, using Brucella broth medium supplemented with 2.5% fetal bovine serum, to yield a seed inoculum. The other test microorganisms were each cultured at 37° C. for 20 hours, using Brucella broth medium, to yield respective seed inocula.
(§2) Five microliters of each seed inoculum, previously adjusted to about 10^6 CFU/ml using Brucella broth medium supplemented with 2.5% fetal bovine serum was inoculated to each determination plate, and cultured at 37° C. in a gas pack jar incorporating CampyPak™ and water-soaked cotton absorbent for 4 days. After cultivation, strain growth was macroscopically examined; the minimum concentration for the absence of strain growth was taken as the MIC value (minimum inhibitory concentration) of the test compound.

[3] = system: Pseudomonas aeruginosa IFO 3080; experiment: In vitro antimicrobial test (agar dilution method); format: cell-based; details: Brucella agar with 7% horse blood, 37° C., 4 days
Protocol: as §1, §2

[4] = system: Micrococcus flavus IFO 3242; experiment: In vitro antimicrobial test (agar dilution method); format: cell-based; details: Brucella agar with 7% horse blood, 37° C., 4 days
Protocol: as §1, §2

[5] = system: Bacillus pumilus IFO 3813; experiment: In vitro antimicrobial test (agar dilution method); format: cell-based; details: Brucella agar with 7% horse blood, 37° C., 4 days
Protocol: as §1, §2

Escherichia coli K12 = experiment: In vitro antimicrobial test (agar dilution method); format: cell-based; details: Brucella agar with 7% horse blood, 37° C., 4 days
Protocol: as §1, §2

[6] = system: Salmonella typhimurium IFO 12529; experiment: In vitro antimicrobial test (agar dilution method); format: cell-based; details: Brucella agar with 7% horse blood, 37° C., 4 days
Protocol: as §1, §2

[7] = system: Klebsiella pneumoniae IFO 3317; experiment: In vitro antimicrobial test (agar dilution method); format: cell-based; details: Brucella agar with 7% horse blood, 37° C., 4 days
Protocol: as §1, §2

[8] = system: Salmonella enteritidis IFO 3313; experiment: In vitro antimicrobial test (agar dilution method); format: cell-based; details: Brucella agar with 7% horse blood, 37° C., 4 days
Protocol: as §1, §2

Bacillus cereus IFO 3514 = experiment: In vitro antimicrobial test (agar dilution method); format: cell-based; details: Brucella agar with 7% horse blood, 37° C., 4 days
Protocol: as §1, §2

[9] = system: Alcaligenes faecalis IFO 13111; experiment: In vitro antimicrobial test (agar dilution method); format: cell-based; details: Brucella agar with 7% horse blood, 37° C., 4 days
Protocol: as §1, §2

[10] = system: Bacillus subtilis PCI 219; experiment: In vitro antimicrobial test (agar dilution method); format: cell-based; details: Brucella agar with 7% horse blood, 37° C., 4 days
Protocol: as §1, §2

[11] = system: Staphylococcus aureus FDA 209P; experiment: In vitro antimicrobial test (agar dilution method); format: cell-based; details: Brucella agar with 7% horse blood, 37° C., 4 days
Protocol: as §1, §2

[12] = system: Proteus mirabilis ATCC 21100; experiment: In vitro antimicrobial test (agar dilution method); format: cell-based; details: Brucella agar with 7% horse blood, 37° C., 4 days
Protocol: as §1, §2

[13] = system: Serratia marcescens IFO 3046; experiment: In vitro antimicrobial test (agar dilution method); format: cell-based; details: Brucella agar with 7% horse blood, 37° C., 4 days
Protocol: as §1, §2

[14] = system: Saccharomyces cerevisiae IFO 0209; experiment: In vitro antimicrobial test (agar dilution method); format: cell-based; details: Brucella agar with 7% horse blood, 37° C., 4 days
Protocol: as §1, §2

[15] = system: Bacillus megaterium IFO 12108; experiment: In vitro antimicrobial test (agar dilution method); format: cell-based; details: Brucella agar with 7% horse blood, 37° C., 4 days
Protocol: as §1, §2

[16] = system: Escherichia coli NIHJ JC-2; experiment: In vitro antimicrobial test (agar dilution method); format: cell-based; details: Brucella agar with 7% horse blood, 37° C., 4 days
Protocol: as §1, §2

[17] = system: Proteus vulgaris IFO 3045; experiment: In vitro antimicrobial test (agar dilution method); format: cell-based; details: Brucella agar with 7% horse blood, 37° C., 4 days
Protocol: as §1, §2

[18] = system: Citrobater freundii IFO 12681; experiment: In vitro antimicrobial test (agar dilution method); format: cell-based; details: Brucella agar with 7% horse blood, 37° C., 4 days
Protocol: as §1, §2

[19] = system: Proteus morganii IFO 3168; experiment: In vitro antimicrobial test (agar dilution method); format: cell-based; details: Brucella agar with 7% horse blood, 37° C., 4 days
Protocol: as §1, §2

[20] = system: Micrococcus luteus IFO 12708; experiment: In vitro antimicrobial test (agar dilution method); format: cell-based; details: Brucella agar with 7% horse blood, 37° C., 4 days
Protocol: as §1, §2

H. pylori NCTC 11916 = experiment: In vitro antimicrobial test (agar dilution method); format: cell-based, Helicobacter pylori; details: Brucella agar with 7% horse blood
Protocol: as §1
Five microliters of each seed inoculum, previously adjusted to about 10^6 CFU/ml using Brucella broth medium supplemented with 2.5% fetal bovine serum was inoculated to each determination plate, and cultured at 37° C. in a gas pack jar incorporating CampyPak™ and water-soaked cotton absorbent for 4 days. […]

H. pylori TN 2 = experiment: In vitro antimicrobial test (agar dilution method); format: cell-based, Helicobacter pylori; details: Brucella agar with 7% horse blood
[21] = system: Helicobacter pylori NCTC 11637; experiment: In vitro antimicrobial test (agar dilution method); format: cell-based; details: Brucella agar with 7% horse blood, 37° C., 4 days
[22] = 3 mg/kg orally twice daily for 3 days

CN=C1NC(=O)[C@H]([C@H](C)c2c[nH]c3ccccc23)O1 [Indolmycin, indolmycin]
MIC (H. pylori CPY 433): 0.013 µg/mL (≈ 0.0505 µM) | MIC (H. pylori TN 58): 0.025 µg/mL (≈ 0.0972 µM) | Clearance Rate [1, 22]: 0/5 (0) % | Bacterial Detection [1, 22]: 4.61 ± 1.84 log CFU/gastric wall | gastric bacterial cell count (in words) ([1]; 10 mg/kg or higher, mongolian gerbil): reduced the mongolian gerbil gastric bacterial cell count with dose dependency | Clearance Rate ([1]; 10 mg/kg orally twice daily for 3 days): 0/5 (0) % | Bacterial Detection ([1]; 10 mg/kg orally twice daily for 3 days, ** p<0.01 vs control): 2.76 ± 1.04** log CFU/gastric wall | Clearance Rate ([1]; 30 mg/kg orally twice daily for 3 days): 1/4 (25) % | Clearance Rate ([1]; 30 mg/kg orally twice daily for 3 days, listed as indolmycin): 25% | Bacterial Detection ([1]; 30 mg/kg orally twice daily for 3 days, ** p<0.01 vs control): 1.96 ± 0.78** log CFU/gastric wall | Clearance Rate ([1]; 100 mg/kg orally twice daily for 3 days): 4/5 (80) % | Clearance Rate ([1]; 100 mg/kg orally twice daily for 3 days, listed as indolmycin): 80% | Bacterial Detection ([1]; 100 mg/kg orally twice daily for 3 days, ** p<0.01 vs control): 1.48 ± 0.00** log CFU/gastric wall | MIC [2]: >100 µg/mL | MIC [3]: >100 µg/mL | MIC [4]: >100 µg/mL | MIC [5]: >100 µg/mL | MIC (Escherichia coli K12): >100 µg/mL | MIC [6]: >100 µg/mL | MIC [7]: >100 µg/mL | MIC [8]: >100 µg/mL | MIC (Bacillus cereus IFO 3514): >100 µg/mL | MIC [9]: >100 µg/mL | MIC [10]: >100 µg/mL | MIC [11]: >100 µg/mL | MIC [12]: >100 µg/mL | MIC [13]: >100 µg/mL | MIC [14]: >100 µg/mL | MIC [15]: >100 µg/mL | MIC [16]: >100 µg/mL | MIC [17]: >100 µg/mL | MIC [18]: >100 µg/mL | MIC [19]: >100 µg/mL | MIC [20]: 12.5 µg/mL (≈ 48.6 µM) | MIC (H. pylori NCTC 11916): 0.013 µg/mL (≈ 0.0505 µM) | MIC (H. pylori TN 2): 0.006 µg/mL (≈ 0.0233 µM) | MIC [21]: 0.006 µg/mL (≈ 0.0233 µM)

C[C@H](c1c[nH]c2ccccc12)[C@@H]1OC(N(C)C(=O)OCc2ccccc2)=NC1=O [Example 2, (5S)-2-(N-Benzyloxycarbonyl-N-methyl)amino-5[(1R)-1-(indol-3-yl)ethyl]-2-oxazolin-4-one]
MIC (H. pylori CPY 433): 0.05 µg/mL (≈ 0.128 µM) | MIC (H. pylori TN 58): 0.05 µg/mL (≈ 0.128 µM) | MIC (H. pylori TN 2): 0.025 µg/mL (≈ 0.0639 µM) | MIC [21]: 0.025 µg/mL (≈ 0.0639 µM)
